Consider one compound from patent US6410245B1, “Compositions and methods for detecting ligand-dependent nuclear receptor and coactivator interactions” (priority 1998, dated 2002).

The subject of this assay is VP16TRα, Gal4-SRC-1, and UAS-TK-luciferase. The experiment in a line: positive two-hybrid system, luciferase reporter, VP16TRα and Gal4-SRC-1. In kind it is cell-based. The settings on record: CHO cells triple transfected; dose-response curve; FIG. 8. The source says: “Receptor” indicates LBD-TRX, with the LBD exemplified by a genereic nuclear receptor (NR) LBD with bound ligand (L), and the TRX domain represented by the VP16 acidic activation domain (VP16). “Coactivator” indicates a CA-TRX, with exemplary CA species being a portion of the SRC-1 protein, a portion of the CBP protein, or isolated LCD sequences from those proteins, the TRX domain is exemplified as the Gal4 DNA binding domain (DBD). “Corepressor” indicates a CR-TRX, with exemplary CR species being the interacting domains (ID1 or ID2) from SMRT or NcoR fused to the TRX domain as exemplified by Gal4 DNA binding domain (DBD). The reporter polynucleotide is exemplified as a UAS-TK-luciferase reporter containing binding sites for Gal4 DBD. CHO cells were triple transfected with these constructs and hormone added.
“Receptor” indicates LBD-TRX, with the LBD exemplified by a genereic nuclear receptor (NR) LBD with bound ligand (L), and the TRX domain represented by the VP16 acidic activation domain (VP16). “Coactivator” indicates a CA-TRX, with exemplary CA species being a portion of the SRC-1 protein, a portion of the CBP protein, or isolated LCD sequences from those proteins, the TRX domain is exemplified as the Gal4 DNA binding domain (DBD). […]

As for `N[C@@H](Cc1cc(I)c(Oc2ccc(O)c(I)c2)c(I)c1)C(=O)O` [T3, triiodothyronine], the “reporter (luciferase) response” value is “dose-dependent”.
